# Experimental data published in the supplement of paper PMC10307832.
# Assays:
# Assay in all cases: relative viability (nuclei count vs DMSO), 5 days (fraction); higher = more cells survive
# [1] = compound: CC1(COc2ccc3c(c2)ncn3-c2ccc3cccc(N4CCC(N)CC4)c3n2)COC1 [Crenolanib] + CC1(C)CCC(c2ccc(Cl)cc2)=C(CN2CCN(c3ccc(C(=O)NS(=O)(=O)c4ccc(N[C@H](CCN5CCOCC5)CSc5ccccc5)c(S(=O)(=O)C(F)(F)F)c4)cc3)CC2)C1 [Navitoclax] (partner 0.5 µM)
# How it was run: (§1)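 For relative viability, nuclei counts in treated wells were divided by those in vehicle wells. Lung cancer cell lines had been pin-tool dosed in 1536-well plates the day after seeding and cultured for 5 days, then fixed and stained in one step (final 0.05% Triton X-100, 1% formaldehyde, 1 ug/ml Hoechst) and imaged at 4×. Doses were one drug alone or a fixed anchor-drug dose plus five library-drug doses (not always all listed) in √10 steps, and values are duplicate-plate medians.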
# [2] = compound: CC1(COc2ccc3c(c2)ncn3-c2ccc3cccc(N4CCC(N)CC4)c3n2)COC1 [Crenolanib] + N=C(N)NC(=N)NCCc1ccccc1 [Phenformin] (partner 250 µM)
# How it was run: as §1
# [3] = compound: O=C1NC(=O)[C@@H](c2cn3c4c(cccc24)CCC3)[C@@H]1c1c[nH]c2ccccc12 [Tivantinib] + CCNC(=O)c1noc(-c2cc(C(C)C)c(O)cc2O)c1-c1ccc(CN2CCOCC2)cc1 [Luminespib] (partner 0.01 µM)
# How it was run: as §1
# [4] = compound: O=C1NC(=O)[C@@H](c2cn3c4c(cccc24)CCC3)[C@@H]1c1c[nH]c2ccccc12 [Tivantinib] + Cc1nc(NC(=O)N2CCC[C@H]2C(N)=O)sc1-c1ccnc(C(C)(C)C(F)(F)F)c1 [Alpelisib] (partner 2 µM)
# How it was run: as §1
Cell Line,relative viability ([1]; first compound 0.01 µM),relative viability ([1]; first compound 0.03162 µM),relative viability ([1]; first compound 0.1 µM),relative viability ([1]; first compound 0.3162 µM),relative viability ([1]; first compound 1 µM),relative viability ([2]; first compound 0.01 µM),relative viability ([2]; first compound 0.03162 µM),relative viability ([2]; first compound 0.1 µM),relative viability ([2]; first compound 0.3162 µM),relative viability ([2]; first compound 1 µM),relative viability ([3]; first compound 0.01 µM),relative viability ([3]; first compound 0.03162 µM),relative viability ([3]; first compound 0.1 µM),relative viability ([3]; first compound 0.3162 µM),relative viability ([4]; first compound 0.01 µM),relative viability ([4]; first compound 0.03162 µM),relative viability ([4]; first compound 0.1 µM),relative viability ([4]; first compound 0.3162 µM)
NCI-H1975,1.18,1.02,0.954,1.17,1.24,0.419,0.402,0.389,0.429,0.409,0.197,0.307,0.17,0.218,0.645,0.676,0.602,0.5
NCI-H1993,0.994,0.92,0.825,0.897,0.884,0.486,0.513,0.493,0.533,0.499,1,0.822,0.421,0.56,0.682,0.707,0.644,0.669
NCI-H2009,1.2,1.17,1.13,1.24,1.01,0.497,0.488,0.46,0.4,0.408,0.989,1.08,0.985,1.1,1.15,1.21,1.12,1.14
NCI-H2023,1.02,0.996,0.977,1.09,0.956,0.407,0.415,0.409,0.441,0.376,0.867,0.82,0.673,0.528,0.549,0.642,0.5,0.492
NCI-H2085,1.08,1.12,1.09,1.24,1.17,0.742,0.745,0.63,0.7,0.631,0.429,0.379,0.403,0.42,1.03,0.934,1.01,0.837
NCI-H2087,1.02,0.9,0.867,1.06,1.12,0.466,0.488,0.434,0.524,0.471,0.165,0.182,0.139,0.137,1,1.06,1.02,0.956
NCI-H2126,0.891,0.888,0.831,0.916,0.934,0.533,0.536,0.51,0.51,0.455,0.978,0.886,0.884,0.745,0.745,0.739,0.749,0.684
NCI-H2170,0.612,0.549,0.65,0.665,0.579,0.467,0.41,0.387,0.326,0.387,0.527,0.594,0.672,,0.806,0.852,0.674,
NCI-H2228,0.796,0.62,0.764,1.24,1.3,0.313,0.487,0.324,0.388,0.317,,0.152,0.168,0.125,0.842,0.644,0.618,0.695
NCI-H2347,0.835,0.815,0.478,0.885,0.865,0.381,,,0.546,0.469,0.726,0.35,0.285,0.316,1.16,0.959,1.06,1.01
NCI-H2405,1.34,0.917,0.441,0.765,0.806,0.359,0.394,,0.284,0.362,0.77,0.908,0.651,0.586,1.12,0.751,0.777,0.483
NCI-H3122,0.987,1,0.985,1.04,1,0.383,0.344,0.368,0.313,0.318,0.0944,0.103,0.0763,0.0784,0.731,0.849,0.803,0.807
PC-3 [JPC-3],0.783,0.788,0.754,0.841,0.869,0.487,0.494,0.46,0.474,0.458,0.794,0.777,0.678,0.575,0.993,1.06,1.05,0.775
PC-14,1.08,1.01,0.986,1.11,0.988,0.628,0.46,0.544,0.473,0.314,,0.152,0.152,0.15,0.874,0.927,0.945,0.892
RERF-LC-KJ,0.962,0.729,1.04,1.33,0.948,0.442,0.44,0.423,0.463,0.446,1.25,1.29,1.24,1.27,0.839,0.854,0.81,0.6
SK-LU-1,0.923,1.02,0.472,1.05,0.803,0.61,0.545,0.39,0.514,0.517,0.183,0.218,0.197,0.199,1.04,1.17,0.995,1.16
SK-MES-1,1.4,1.4,1.25,1.45,1.2,0.655,0.635,0.687,0.636,0.583,0.763,0.747,,0.828,0.912,0.867,0.929,0.444
SW 1573,1.11,1.17,0.867,1.03,1.23,0.426,0.44,0.331,0.446,0.348,0.263,0.525,0.17,0.271,0.941,0.738,0.741,0.716
